Test results from US6423347B1, “Method and product using sturgeon notochord for alleviating the symptoms of arthritis” (Abbott Laboratories, priority 1997, dated 2002).
Read-outs that look alike come from different tables or passages of the source.

Experiments:
[1] = test system: collagen-induced arthritis (CIA); assay: Dose response of sturgeon notochord in protecting mice from CIA; format: in vivo, DBA/1 Lac J strain mice; conditions: 0.1 mg/kg p.o.
Method: To evaluate the dose response of sturgeon notochord in protecting mice from CIA, this experiment was conducted in a manner similar to Examples II and III. The mice were DBA/1 Lac J strain supplied by Jackson Laboratories of Bar Harbor, Maine. All mice were female and about 6-8 weeks of age. Eight groups of 10-15 mice per group were acclimated to their surroundings for 7 days. A standard mouse chow and water were provided for ad libitum consumption to all animals.
On Days[…] −10, −7, −5 and −2 prior to immunization, mice were sensitized by sturgeon notochord. A group fed only vehicle was used as the negative control and a group fed with an effective dose of dexamethasone (0.1 mg/kg per os) was used as the positive control. Sturgeon notochord was obtained from farm raised sturgeon and pulverized in liquid nitrogen. The dose level of sturgeon notochord was equilibrated to 1, 3, 10, 30, 100 or 300 μg of collagen per dose based on the protein and collagen content. Sturgeon notochord was dissolved/suspended in 0.01 M acetic acid and 0.3 ml was administered to each mouse with a ball tipped feeding needle.
On Day 0, the mice were immunized at the base of the tail with 100 μg of bovine CII which was emulsified in CFA. On Day 21, the mice were injected subcutaneously with 50 μg of LPS.
Mice were inspected daily for the onset of CIA, characterized by erythema and edema. Limbs were clinically evaluated and graded on a scale of 0 to 6 as described in Example III.
The inventors continued to observe four selected groups (vehicle control group, sturgeon notochord 0.105 mg/dose group, sturgeon notochord 1.053 mg/dose group, and dexamethasone group) until Day 79. Severity scores plotted against days post-sensitization are found in FIG. 1.

[2] = test system: chronic CIA induced by using human CII; assay: Chronic CIA induced by human type II collagen; format: in vivo, Female DBA/1 Lac J strain mice; conditions: 0.1 mg dexamethasone/kg BW on Days 21 and 35
Method: Effect of Sturgeon Notochord in a Chronic Arthritis Induced by Human Type II Collagen This experiment was conducted to investigate the effectiveness of sturgeon notochord in protecting mice from chronic CIA induced by using human CII (unlike other examples in this application which used bovine CII). Female DBA/1 Lac J strain mice, approximately 6-8 weeks of age, were obtained from Jackson Laboratories of Bar Harbor, Maine. Animals were acclimated to their surroundings for 7 days. A standard mouse chow (Teklad diet) and water were provided for ad libitum consumption.
The chronic CIA induction was achieved by immunizing each mice on Day 0 and Day 21 at the base of the tail with […] of human CII which was emulsified in CFA. Animals in the vehicle control group and Dexamethasone control group received 0.01 M acetic acid on Days −10, −7, −5, and −2 and 0.1 mg dexamethasone/kg BW on Days 21 and 35, respectively. The mice receiving sturgeon notochord were divided into three groups and they were dosed with 100 mg collagen per dose dissolved/suspended in 0.01 M acetic acid and 0.3 ml was administered. Group 1 received sturgeon notochord on Days −10, −7, −5, and −2; Group 2, on Days 7, 10, 12, and 14; Group 3, Days 28, 31, 33, and 35.
Mice were inspected daily for the onset of CIA, characterized by erythema and edema. Limbs were clinically evaluated and graded on a scale of 0 to 6 (0, absence of arthritis; 0.5, one or more digits swollen or only the paw swollen; 1, entire paw swollen; 2, entire paw severely swollen; 3, mild deformity after inflammation subsides; 4, severe deformity; 5, mild ankylosis with partial loss of joint function in the paw; 6, severe ankylosis with total loss of joint function in the paw). […]

[3] = test system: collagen-induced arthritis (CIA); format: in vivo
Method: These Examples were conducted to investigate the effectiveness of sturgeon notochord in protecting mice from collagen-induced arthritis (CIA). Female DBA/1 Lac J strain mice, approximately 6-8 weeks of age, were obtained from Jackson Laboratories of Bar Harbor, Maine. Three groups of 20 mice per group were acclimated to their surroundings for 7 days. A standard mouse chow (Purina Certified Mouse Chow #5015; 11% by wt. fat; collagen-free) and water were provided for ad libitum consumption to all animals.
Bovine serum albumin (a protein derived from non-connective tissue) and cod skin gelatin (a protein derived from another connective tissue containing Type I collagen of a fish) served as negative controls. Sturgeon notochord was obtained from farm raised sturgeon and pulverized in liquid nitrogen. The level of each test composition was equilibrated to a 300 μg protein dose based on protein (including collagen) content. Test articles were dissolved/suspended in 0.01 M acetic acid and 0.3 ml was administered per dose to each mouse with a ball tipped feeding needle.
On Day 0, the mice were immunized at the base of the tail with 100 μg of bovine CII which was emulsified in Complete Freund's Adjuvant (CFA). On Day 7, a second booster dose of 100 μg bovine CII in CFA was administered by the same route. On Day 14, the mice were injected subcutaneously with 100 μg of lipopolysaccharide (LPS). This protocol represents a mild induction of CIA.
Mice were inspected daily for the onset of CIA, characterized by erythema and edema. Limbs were clinically evaluated and graded on a scale of 0 to 3 (0, absence of arthritis; 1, mild swelling and erythema; 2, swelling and erythema of both tarsus and ankle; 3, ankylosis and bone deformity). […] All mice were euthanized by CO2 on Day 50.

Compound: C[C@@H]1C[C@H]2[C@@H]3CCC4=CC(=O)C=C[C@]4(C)[C@@]3(F)[C@@H](O)C[C@]2(C)[C@@]1(O)C(=O)CO [Dexamethasone]
- % of incidence ([1]; D26): 40%
- severity score ([1]; D26): 1.0 ± 0.4
- % of incidence ([1]; D28): 50%
- severity score ([1]; D28): 1.1 ± 0.4
- % of incidence ([1]; D35): 50%
- severity score ([1]; D35): 1.1 ± 0.4
- % incidence ([2]; D28): 33%
- severity score ([2]; D28): 0.25
- % incidence ([2]; D35): 67%
- severity score ([2]; D35): 0.42
- % incidence ([2]; D42): 100%
- severity score ([2]; D42): 1.75
- % incidence ([2]; D49): 100%
- severity score ([2]; D49): 3.58

Compound: bovine serum albumin [BSA]
- median day of onset ([3]; 300 μg protein dose oral on Days −10, −7, −5 and −2): 17 days
- # animals with arthritis ([3]; Day 20, 300 μg protein dose oral on Days −10, −7, −5 and −2): 12
- # animals with arthritis ([3]; Day 28, 300 μg protein dose oral on Days −10, −7, −5 and −2): 12
- # animals with arthritis ([3]; Day 40, 300 μg protein dose oral on Days −10, −7, −5 and −2): 12
- # animals with arthritis ([3]; Day 50, 300 μg protein dose oral on Days −10, −7, −5 and −2): 14
- % onset ([3]; calculated based on the Day 50 data, 300 μg protein dose): 78%
- mean severity score ([3]; scale of 0 to 3, based on Day 20, 29, 34, 43 and 50 data, 300 μg protein dose): 2.05
